Measurements taken from the Deep4Chem optical property database.

Assay: solvent given as SMILES

In the case of CC(C)(C)c1ccc(C#Cc2c(C#Cc3ccc(C(C)(C)C)cc3)c3cccc4c(C#Cc5ccc(C(C)(C)C)cc5)c(C#Cc5ccc(C(C)(C)C)cc5)c5cccc2c5c34)cc1, the absorption maximum (in ClCCl) is reported as 410 nm.

For CCC1(CC)c2cc(B(c3c(C)cc(C)cc3C)c3c(C)cc(C)cc3C)ccc2-c2ccc(N(c3ccccc3)c3ccccc3)cc21, the absorption maximum (in C1CCOC1) was 400 nm, the absorption maximum (in CC#N) was 394 nm and the absorption maximum (in CC(C)=O) was 398 nm. The absorption maximum (in CCCCCC) was 401 nm, the absorption maximum (in CN(C)C=O) was 396 nm and the absorption maximum (in Cc1ccccc1) was 403 nm. It also gave an absorption maximum (in ClC(Cl)Cl) of 402 nm.

In the case of Cc1cc2nc3c(=O)n(C)c(=O)nc-3n(C)c2cc1C, the absorption maximum (in CC#N) is reported as 444 nm.

Work on COc1ccc(/C=C2\OC(=O)c3ccccc32)cc1 yielded an absorption maximum (in CC#N) of 336 nm.

Work on C(=C\c1ccc(N(c2ccccc2)c2ccccc2)cc1)/c1ccc(-c2ccc(/C=C/c3ccc(N(c4ccccc4)c4ccccc4)cc3)cc2)cc1 yielded an absorption maximum (in ClCCl) of 398 nm.

With C(S/C=C/c1ccc(/C=C/SC=C2CCCCC2)cc1)=C1CCCCC1 the absorption maximum (in ClCCl) was 350 nm.

Molecule COc1ccc(C2=C3C(C)=CC(C)=[N+]3[B-](F)(F)n3c(C)cc(C)c32)cc1 has an absorption maximum (in Cc1ccccc1) of 504 nm.

With CCCC1=Cc2nc1ccc1[nH]c(cc1CCOC)c1nc(ccc3[nH]c2cc3CCC)C(CCC)=C1 the absorption maximum (in Cc1ccccc1) was 637 nm.

O=C1c2ccc3c4ccc5c6c(ccc(c7ccc(c2c37)C(=O)N1c1ccc(Cl)cc1)c64)C(=O)N(c1ccc(Cl)cc1)C5=O showed an absorption maximum (in CN(C)C=O) of 525 nm.

CCCCCCC(CCCCCC)N1C(=O)c2cccc3c(-c4ccc(N(C)C)cc4)ccc(c23)C1=O showed an absorption maximum (in CCCCCC) of 401.2 nm, an absorption maximum (in CCCCCCCCCCCCCC) of 403.8 nm and an absorption maximum (in CCCCCCCCCCCO) of 428.6 nm. It also gave an absorption maximum (in CCCCO) of 430.2 nm, an absorption maximum (in CN(C)C=O) of 433.8 nm and an absorption maximum (in Cc1ccccc1) of 418.2 nm. For the same molecule, the absorption maximum (in ClC(Cl)Cl) was 426.2 nm.

In the case of CN(C)c1ccccc1, the absorption maximum (in C1CCCCC1) is reported as 293.94 nm.

CCCCCCCCCc1c2ccccc2cc2c1oc1c3oc4c5oc6cc7ccccc7cc6c5c5ccccc5c4c3c3ccccc3c21 showed an absorption maximum (in C1CCOC1) of 420 nm.

Molecule CC(=O)OC[C@H]1O[C@@H](OCC#Cc2ccc(C3=C4C(C)=CC(/C=C/c5ccc([N+](C)(C)C)cc5)=[N+]4[B-](F)(F)n4c(/C=C/c5ccc([N+](C)(C)C)cc5)cc(C)c43)cc2)[C@H](OC(C)=O)C(OC(C)=O)[C@@H]1OC(C)=O (some centres undefined) has an absorption maximum (in CC#N) of 618 nm.

N#Cc1nc(N(Cc2ccc(Br)cc2)Cc2ccc(Br)cc2)c(C#N)nc1N(Cc1ccc(Br)cc1)Cc1ccc(Br)cc1 showed an absorption maximum (in ClC(Cl)Cl) of 485 nm.

Work on CN(C)c1cccc2c1ccc1c(=O)oc(-c3ccc(C(F)(F)F)cc3)cc12 yielded an absorption maximum (in CC(C)=O) of 392 nm, an absorption maximum (in CCCCCCCCO) of 395 nm and an absorption maximum (in CCCCO) of 394 nm. For the same molecule, the absorption maximum (in CCCO) was 393 nm, the absorption maximum (in CCO) was 393 nm and the absorption maximum (in CCOC(C)=O) was 393 nm. The absorption maximum (in CN(C)C=O) was 395 nm, the absorption maximum (in CO) was 391 nm and the absorption maximum (in ClC(Cl)Cl) was 395 nm.

With N#Cc1c2nc3ccccn3c2nc2c1nc1ccccn12 the absorption maximum (in C1CCCCC1) was 410 nm, the absorption maximum (in C1COCCO1) was 425 nm and the absorption maximum (in CC#N) was 430 nm. For the same molecule, the absorption maximum (in CN(C)C=O) was 435 nm and the absorption maximum (in ClC(Cl)Cl) was 425 nm.

With CC1=C(c2ccc(-c3nc(-c4ccccc4)c(-c4ccccc4)[nH]3)cc2)S[C@]2(C)C1=C1C(=C3c4ccccc4C(C)[C@]32C)C(F)(F)C(F)(F)C1(F)F (some centres undefined) the absorption maximum (in C1CCOC1) was 589 nm.

For COc1ccc(/C=C/C2=CC(/C=C/c3ccc(OC)c4ccccc34)=[O+][B-](F)(F)O2)c2ccccc12, the absorption maximum (in CC#N) was 530 nm, the absorption maximum (in CC(C)=O) was 532 nm and the absorption maximum (in CCOC(C)=O) was 524 nm. It also gave an absorption maximum (in CCOCC) of 516 nm, an absorption maximum (in ClC(Cl)(Cl)Cl) of 523 nm and an absorption maximum (in ClCCl) of 536 nm.

Work on CC1(C)c2ccccc2N(c2cccc(S(=O)(=O)c3cccc(N4c5ccccc5C(C)(C)c5ccccc54)c3)c2)c2ccccc21 yielded an absorption maximum (in C1CCOC1) of 281 nm, an absorption maximum (in Cc1ccccc1) of 301 nm and an absorption maximum (in ClC(Cl)Cl) of 287 nm.

CCCCn1c2ccc(-c3ccc4ccccc4c3)cc2c2ccc3c4cc(-c5ccc6ccccc6c5)ccc4n(CCCC)c3c21 showed an absorption maximum (in ClC(Cl)Cl) of 327 nm.

For O=C1OC(c2ccccc2)=C/C1=C\c1ccccc1, the absorption maximum (in C1COCCO1) was 442 nm.

N#Cc1ccc(-n2c(-c3ccc(-c4ccc(-n5c6ccccc6c6ccccc65)cc4)s3)nc3c4ccccc4c4ccccc4c32)c2ccccc12 gave an absorption maximum (in ClCCl) of 301 nm.

With Cc1ccc(/N=C2\N=C(N)c3cccc4cccc2c34)cc1 the absorption maximum (in ClCCl) was 349 nm.

Work on CCn1c2cc(-c3ccc(-c4cccs4)s3)ccc2c2ccc(-c3ccc(-c4cccs4)s3)cc21 yielded an absorption maximum (in ClCCl) of 399 nm.

Work on N#Cc1cnc(-c2c3ccccc3c(-c3ncc(C#N)cn3)c3ccccc23)nc1 yielded an absorption maximum (in CCO) of 391 nm and an absorption maximum (in ClCCl) of 394 nm.

COC(=O)c1nc(-c2cccc3ccccc23)oc1C gave an absorption maximum (in C1CCCCC1) of 318 nm, an absorption maximum (in CC#N) of 308 nm and an absorption maximum (in CCO) of 309 nm. It also gave an absorption maximum (in CCOC(C)=O) of 317 nm.

In the case of CC1=c2ccccc2=[N+]2C1=Cc1c3ccccc3c(-c3[nH]c4ccccc4c3C)n1[B-]2(F)F, the absorption maximum (in ClCCl) is reported as 611 nm.

With [O-]c1ccc2ccccc2c1 the absorption maximum (in O) was 346 nm.

With Nc1ccc2c(c1)C(=O)c1ccc(N)cc1C2=O the absorption maximum (in CC#N) was 438 nm, the absorption maximum (in CC(C)O) was 484 nm and the absorption maximum (in CCO) was 477 nm. It also gave an absorption maximum (in CCOC(C)=O) of 433.4 nm and an absorption maximum (in CO) of 474 nm.

With CCOC(=O)COc1ccc(/C=C/C2=C3c4ccccc4C(c4ccc[nH]4)=[N+]3[B-](F)(F)n3ccc(C)c32)cc1 the absorption maximum (in C1CCOC1) was 586 nm, the absorption maximum (in CC#N) was 577 nm and the absorption maximum (in CCCCCC) was 587 nm. The absorption maximum (in CO) was 580 nm, the absorption maximum (in Cc1ccccc1) was 592 nm and the absorption maximum (in ClCCl) was 585 nm.

For c1ccc2c3c(ccc2c1)-c1c2ccccc2cc2cccc-3c12, the absorption maximum (in CCCCCCC) was 449 nm.

For S=P1(c2ccccc2)C(c2ccccc2)=Cc2cc3ccccc3cc21 (centres undefined), the absorption maximum (in ClCCl) was 387 nm.

Work on Nc1cc([NH3+])cc(-c2nc3ccccc3s2)c1 yielded an absorption maximum (in O) of 300 nm.

For CC1=CC2=C3C(=C4C(C)=C(c5ccc(-c6nc(-c7ccccc7)c(-c7ccccc7)[nH]6)cc5)S[C@@]4(C)[C@]2(C)S1)C(F)(F)C(F)(F)C3(F)F, the absorption maximum (in C1CCOC1) was 546 nm.

COc1ccc(/C=C/C2=NC(=C\c3ccncc3)/C(=O)N2C)cc1 gave an absorption maximum (in C1COCCO1) of 422 nm, an absorption maximum (in CC#N) of 428 nm and an absorption maximum (in CCO) of 433 nm. For the same molecule, the absorption maximum (in CCOC(C)=O) was 423 nm and the absorption maximum (in O) was 425 nm.

With Cc1cc(C)c(-c2nnc(-c3ccc(-n4c5ccccc5c5ccccc54)c(C)c3)o2)c(C)c1 the absorption maximum (in Cc1ccccc1) was 339 nm.

In the case of CCCCOc1ccc(/C=C/C=C/C=C/c2ccc([N+](=O)[O-])cc2)cc1, the absorption maximum (in CC1CCCCC1) is reported as 414 nm, the absorption maximum (in CC#N) is reported as 413 nm and the absorption maximum (in Cc1ccccc1) is reported as 420 nm. For the same molecule, the absorption maximum (in ClCCl) was 421 nm.

CC[N+]1(CC)CN2C(=N1)C(C(=O)O)=Cc1ccc(C)cc12 showed an absorption maximum (in O) of 370 nm.

CCCCCCCN1C(=CC2=C([O-])C(=Cc3sc4ccccc4[n+]3CCCCCCC)C2=C(C#N)C#N)Sc2ccccc21 showed an absorption maximum (in C1COCCO1) of 709 nm, an absorption maximum (in CCO) of 696 nm and an absorption maximum (in CN(C)C=O) of 696 nm. The absorption maximum (in ClC(Cl)Cl) was 704 nm.

Work on COc1nc(Cl)nc(Nc2ccc3c4c(cccc24)C(=O)c2ccccc2-3)n1 yielded an absorption maximum (in CC#N) of 407 nm, an absorption maximum (in CC(C)=O) of 410 nm and an absorption maximum (in CC(C)O) of 417.01 nm. For the same molecule, the absorption maximum (in CCOC(C)=O) was 411.02 nm, the absorption maximum (in CO) was 414.94 nm and the absorption maximum (in Cc1ccccc1) was 419.99 nm. The absorption maximum (in Clc1ccccc1) was 418.06 nm, the absorption maximum (in N#Cc1ccccc1) was 415.97 nm and the absorption maximum (in O=C1CCCCC1) was 414.94 nm.

c1cc2ccc1-c1ccc(cc1)-c1ccc(s1)-c1ccc(cc1)-c1ccc(cc1)-c1ccc(s1)-c1ccc(cc1)-c1ccc(cc1)-c1ccc-2s1 showed an absorption maximum (in C1CCOC1) of 346 nm.

O=C(c1ccncc1)c1ccc(-n2c3ccccc3c3ccccc32)cc1 showed an absorption maximum (in C1CCOC1) of 353.15 nm, an absorption maximum (in CCCCCC) of 354.95 nm and an absorption maximum (in Cc1ccccc1) of 359 nm. It also gave an absorption maximum (in ClCCl) of 359.23 nm.

Work on CCOC(=O)c1c(-c2c(Cl)c3ccccc3oc2=O)nn(-c2cccc(C)c2)c1C(=O)OCC yielded an absorption maximum (in ClCCl) of 321 nm.

Molecule CN(C)c1ccc(C#Cc2cc3ccccc3oc2=O)cc1 has an absorption maximum (in ClCCl) of 406 nm.

COc1ccc(C2=[N+]3C(=Nc4c(-c5ccc6ccccc6c5)cc(-c5ccc(OC)cc5)n4[B-]3(F)F)C(c3ccc4ccccc4c3)=C2)cc1 gave an absorption maximum (in ClCCl) of 704 nm.

Work on C[n+]1ccc(/C=C/c2cc[n+](C)cc2)cc1 yielded an absorption maximum (in CC#N) of 317 nm.

For CC(=O)c1c(N[C@H](C(=O)O)C(C)C)c2ccc(N(C)C)cc2oc1=O, the absorption maximum (in ClCCl) was 371 nm.

For CN(C)c1ccc(/C=C/c2nc3ccc(Br)cc3nc2-c2ccccc2)cc1, the absorption maximum (in C1COCCO1) was 445 nm, the absorption maximum (in CC#N) was 448 nm and the absorption maximum (in ClCCl) was 453 nm.

Cc1ccc(/C2=C3N=C(C(c4ccccc4)=C/3c3ccccc3)/C(c3ccc(C)cc3)=c3\[nH]/c(c(-c4ccccc4)c3-c3ccccc3)=C(/c3ccc(C)cc3)C3=N/C(=C(/c4ccc(C)cc4)c4[nH]c2c(-c2ccccc2)c4-c2ccccc2)C(c2ccccc2)=C3c2ccccc2)cc1 showed an absorption maximum (in ClCCl) of 721 nm.

O=C1C=C(Nc2ccc(F)c(F)c2)C(=O)c2ccccc21 showed an absorption maximum (in CO) of 454 nm.

Molecule CC(C)[Si](C#Cc1c2nc3ccccc3nc2c(C#C[Si](C(C)C)(C(C)C)C(C)C)c2nc3c(ccc4ccccc43)nc12)(C(C)C)C(C)C has an absorption maximum (in CCCCCC) of 649 nm.

CCCCC1(CCCC)c2cc(/C=C/c3ccc(N(c4ccccc4)c4ccccc4)cc3)ccc2-c2cc3c(cc21)-c1ccc(/C=C/c2ccc(N(c4ccccc4)c4ccccc4)cc2)cc1C3(CCCC)CCCC gave an absorption maximum (in Cc1ccccc1) of 413 nm.

Molecule Oc1cccc(-c2nc(-c3ccccc3)c(-c3ccccc3)[nH]2)c1 has an absorption maximum (in CO) of 300 nm.

C(#Cc1ccc2ncsc2c1)c1ccc(N(c2ccccc2)c2ccccc2)cc1 showed an absorption maximum (in Cc1ccccc1) of 365 nm.

CCn1ncc2c3c(C#N)c4c5ccccc5n(C)c4nc3ccc21 gave an absorption maximum (in CCOC(C)=O) of 383 nm.

c1ccc2c([SiH](c3c4ccccc4cc4ccccc34)c3c4ccccc4cc4ccccc34)c3ccccc3cc2c1 showed an absorption maximum (in ClC(Cl)Cl) of 401 nm.

CC[n+]1c(-c2ccccc2)c2cc(NC(N)=[NH2+])ccc2c2ccc(N)cc21 showed an absorption maximum (in O) of 454 nm.
